Laboratory results from ChEMBL document CHEMBL5126543, “Tandem construction of biological relevant aliphatic 5-membered N-heterocycles” (Eur J Med Chem, 2022).
pEC50, pIC50: −log10 of the molar value. Converted amounts (≈) assume the structure as drawn. *1 amine or outer side, *2 acyl side, *3 side chain or, on linkers, in order; H or OH if unused. Where a SMILES comes first, the peptide text is derived from it. [ ]: non-standard residue; d: D form. X1 = CS[C@H]1C[C@@H](C(=O)[*:2])N([*:1])C1

Experiments:
PANC-1 = assay: Antitumor activity against human PANC-1 cells assessed as decrease in cell viability measured after 36 hrs by WST-1 assay; format: functional, cell-based; conditions: PANC-1, 36 h
[1] = Selectivity index, Ratio of IC50 for human MC3T3-E1 cells to IC50 of human MDA-MB-231 cells; format: toxicity; conditions: MC3T3-E1 cells versus MDA-MB-231 cells, read-out: Ratio IC50
MDA-MB-231 = assay: Antitumor activity against human MDA-MB-231 cells assessed as decrease in cell viability measured after 36 hrs by WST-1 assay; format: functional, cell-based; conditions: MDA-MB-231, 36 h
[2] = Selectivity index, Ratio of IC50 for human MC3T3-E1 cells to IC50 of human PANC-1 cells
[3] = Cytotoxicity against human MC3T3-E1 cells assessed as decrease in cell viability measured after 36 hrs by WST-1 assay; format: toxicity, cell-based; conditions: mouse
Nonstructural protein 5A [4] = target: T1, Nonstructural protein 5A (Hepatitis C virus, UniProt Q5L478); assay: Inhibition of HCV genotype 5a NS5A; set-up: species or system Hepacivirus hominis
T1 sequence (Q5L478 whole entry): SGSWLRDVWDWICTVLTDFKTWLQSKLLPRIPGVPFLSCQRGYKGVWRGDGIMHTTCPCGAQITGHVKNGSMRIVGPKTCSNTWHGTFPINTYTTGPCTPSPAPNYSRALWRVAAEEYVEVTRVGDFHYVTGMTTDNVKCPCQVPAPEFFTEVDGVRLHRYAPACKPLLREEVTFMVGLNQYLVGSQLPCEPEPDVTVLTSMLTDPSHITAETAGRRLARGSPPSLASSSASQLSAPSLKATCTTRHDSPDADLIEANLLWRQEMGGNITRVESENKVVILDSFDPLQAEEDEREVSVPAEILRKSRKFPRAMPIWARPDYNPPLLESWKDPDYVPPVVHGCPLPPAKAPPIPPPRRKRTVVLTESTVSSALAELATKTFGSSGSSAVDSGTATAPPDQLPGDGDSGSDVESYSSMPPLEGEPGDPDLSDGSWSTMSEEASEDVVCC

Nonstructural protein 5A [5] = target: T1, Nonstructural protein 5A; assay: Inhibition of HCV genotype 3a NS5A; set-up: species or system Hepacivirus hominis
Nonstructural protein 5A [6] = target: T1, Nonstructural protein 5A; assay: Inhibition of HCV genotype 1a NS5A; set-up: species or system Hepacivirus hominis
Nonstructural protein 5A [7] = target: T1, Nonstructural protein 5A; assay: Inhibition of HCV genotype 2a NS5A; set-up: species or system Hepacivirus hominis
Nonstructural protein 5A [8] = target: T1, Nonstructural protein 5A; assay: Inhibition of HCV genotype 4a NS5A; set-up: species or system Hepacivirus hominis
Nonstructural protein 5A [9] = target: T1, Nonstructural protein 5A; assay: Inhibition of HCV genotype 1b NS5A; set-up: species or system Hepacivirus hominis
Nonstructural protein 5A [10] = target: T1, Nonstructural protein 5A; assay: Inhibition of HCV genotype 6a NS5A; set-up: species or system Hepacivirus hominis
Candida albicans = assay: Antimicrobial activity against Candida albicans ATCC 24433 incubated for 18 to 20 hrs; format: functional; conditions: time 18-20 hrs
Priestia megaterium = assay: Antimicrobial activity against Bacillus megaterium Bm11 incubated for 18 to 20 hrs; format: functional; conditions: time 18-20 hrs
Escherichia coli = assay: Antimicrobial activity against Escherichia coli ATCC 25922 incubated for 18 to 20 hrs; format: functional; conditions: time 18-20 hrs
[11] = tested on: Staphylococcus epidermidis; assay: Antimicrobial activity against Staphylococcus epidermidis ATCC 12228 incubated for 18 to 20 hrs; format: functional; conditions: time 18-20 hrs
Pseudomonas aeruginosa = assay: Antimicrobial activity against Pseudomonas aeruginosa ATCC 27853 incubated for 18 to 20 hrs; format: functional; conditions: time 18-20 hrs

Row | Molecule | pIC50 (PANC-1) | selectivity ratio [1] | pIC50 (MDA-MB-231) | Ratio IC50 [2] | IC50 at 36 h [3] [nM] | MIC (Candida albicans) [µM] | MIC (Priestia megaterium) [µM] | MIC (Escherichia coli) [µM] | MIC [11] [µM] | MIC (Pseudomonas aeruginosa) [µM] | also measured
1 | CCCCCCCCC#CC(c1ccc(C(=O)OC)cc1)N1CCCC1 (configuration not stated) | 4.87 | 1.91 | 3.54 | 41.17 | 558000 |  |  |  |  |  | 
2 | CCCCCCCCC#CC(c1ccccc1)N1CCCC1 (configuration not stated) | 4.67 | 3.38 | 4.13 | 11.6 | 250000 |  |  |  |  |  | 
3 | COC(=O)N[C@H](C(=O)N1CCC[C@H]1c1ncc(-c2ccc3c(c2)CC2c4c(F)cc(-c5cnc([C@@H]6CCCN6C(=O)[C@@H](NC(=O)OC)C(C)C)[nH]5)cc4O[C@@H](c4cnc(C5CC5)s4)N32)[nH]1)C(C)C (some centres not stated) |  |  |  |  |  |  |  |  |  |  | pEC50 (Nonstructural protein 5A [4]): 11.74; pEC50 (Nonstructural protein 5A [5]): 11.52; pEC50 (Nonstructural protein 5A [6]): 12.15; pEC50 (Nonstructural protein 5A [7]): 12.00; pEC50 (Nonstructural protein 5A [8]): 12.15; pEC50 (Nonstructural protein 5A [9]): 11.70; pEC50 (Nonstructural protein 5A [10]): 12.00
4 | CC[C@H](C)[C@H](NC(=O)[C@H](CCCNC(=N)N)NC(=O)CNC(=O)[C@H](CC(C)C)NC(=O)[C@H](Cc1ccccc1)NC(=O)[C@H](CCCCN)NC(=O)[C@H](CO)NC(=O)[C@H](Cc1ccccc1)NC(=O)[C@H](Cc1c[nH]c2ccccc12)NC(=O)[C@H](CCC(N)=O)NC(=O)[C@@H]1C[C@H](SC)CN1C(=O)[C@@H](NC(=O)[C@@H](N)Cc1ccccc1)C(C)C)C(=O)N[C@@H](CC(C)C)C(N)=O (H-FV[X1]QWFSKFLGRIL-NH2) |  |  |  |  |  | 6.25 (≈ 11.1 µg/mL) | 3.12 (≈ 5.56 µg/mL) | 12.5 (≈ 22.3 µg/mL) | 3.12 (≈ 5.56 µg/mL) | 25 (≈ 44.6 µg/mL) | 
5 | H-FVPQWFSKFLGRIL-NH2 |  |  |  |  |  | 12.5 | 3.12 | 12.5 | 3.12 | 25 | 
